Results from US10759816B2, “Heterocyclic compounds as RSV inhibitors” (Enanta Pharmaceuticals, Inc., priority 2016, dated 2020).

These compounds were tested on genotype A, "Long" strain RSV (assay: RSV-A in vitro cytoprotection assay in HEp-2 cells (ATPlite readout of cell viability)). Conditions: human respiratory syncytial virus, HEp-2, HEp-2 cells, genotype A “Long” strain RSV, cytoprotection; read-out: Human RSV-A (“Long” strain) EC50.
Type: cell-based, Human respiratory syncytial virus
Summary of the method: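 HEp-2 cells (8,000/well) given 2-fold compound dilutions in duplicate, then infected with RSV-A Long strain stock; viability read by ATPlite luminescence after 4 days. EC50 derived from cytoprotection; cytotoxicity measured on parallel uninfected plate.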

SMILES	EC50
COc1ccc2cc(CN(C)c3cccc(C(=O)N4CCc5cc(C(=O)Nc6c(C)cccc6F)sc5-c5ccccc54)n3)ccc2c1 [Example 356]	> 800 nM
COCC(Nc1cccc(C(=O)N2CCc3cc(C(=O)Nc4c(C)cccc4F)sc3-c3ccccc32)n1)C1CC1 (stereo not shown) [Example 420]	400 to 800 nM
Cc1cccc(F)c1NC(=O)c1cc2c(s1)-c1ccccc1N(C(=O)c1cccc(N3CCN(C)S(=O)(=O)CC3)n1)CC2 [Example 447]	< 400 nM
Cc1cccc(F)c1NS(=O)(=O)c1cc2c(s1)-c1ccccc1N(C(=O)c1cccc(N3CCCOCC3)n1)CC2 [Example 317]	> 800 nM
Cc1cccc(F)c1NC(=O)c1cc2c(s1)-c1ccccc1N(C(=O)c1ccc(NC(=O)N3CC4(CCOCC4)C3)cc1)CC2 [Example 130]	> 800 nM
O=C(NC1CC1)c1cc2c(s1)-c1ccccc1N(C(=O)c1ccc(F)c(-c3ccnc(N4CCOCC4)c3)n1)CC2 [Example 71]	400 to 800 nM
O=C(NC1CC1)c1cc2c(s1)-c1ccccc1N(C(=O)c1cccc(N3CCC(F)(F)CC3)n1)CC2 [Example 23]	< 400 nM
O=C(NC1CC1)c1cc2c(s1)-c1ccccc1N(C(=O)c1cccc(C3=CCOCC3)n1)CC2 [Example 59]	400 to 800 nM
Cc1cccc(F)c1NC(=O)c1cc2c(s1)-c1ccccc1N(C(=O)c1cccc(N3CCOc4ccccc4C3C)n1)CC2 (stereo not shown) [Example 364]	> 800 nM
Cc1cccc(F)c1NC(=O)c1cc2c(s1)-c1ccccc1N(C(=O)c1cccc(N3CCC[C@@H]3C)n1)CC2 [Example 479]	< 400 nM
O=C(NC1CC1)c1cc2c(s1)-c1ccccc1N(C(=O)c1ccc(CN3CCOCC3)cc1)CC2 [Example 1]	> 800 nM
O=C(NC1CC1)c1cc2c(s1)-c1ccccc1N(C(=O)c1cccc(-c3ccnc(N4CCCOCC4)c3)n1)CC2 [Example 86]	< 400 nM
Cn1nccc1-c1cccc(C(=O)N2CCc3cc(C(=O)Nc4ccccc4N)sc3-c3ccccc32)n1 [Example 242]	< 400 nM
O=C(NC1CC1)c1cc2c(s1)-c1ccccc1N(C(=O)c1cccc(N3CCN(C4COC4)CC3)n1)CC2 [Example 27]	400 to 800 nM
CN1Cc2cccc(Nc3cccc(C(=O)N4CCc5cc(C(=O)NC6CC6)sc5-c5ccccc54)n3)c2C1=O [Example 412]	> 800 nM
COc1cc(-c2cccc(C(=O)N3CCc4cc(C(=O)NC5CC5)sc4-c4ccccc43)n2)ccn1 [Example 72]	400 to 800 nM
O=C(NC1CC1)c1cc2c(s1)-c1ccccc1N(C(=O)c1cccc(N3C4CCC3COC4)n1)CC2 [Example 29]	400 to 800 nM
Cc1cccc(F)c1NC(=O)c1cc2c(s1)-c1ccccc1N(C(=O)c1cccc(-c3cnn(S(C)(=O)=O)c3C3CC3)n1)CC2 [Example 216]	< 400 nM
Cc1cccc(F)c1NC(=O)c1cc2c(s1)-c1ccccc1N(C(=O)c1cccc(N3CCC[C@@H]3C(C)C)n1)CC2 [Example 482]	> 800 nM
O=C(NC1CNC1)c1cc2c(s1)-c1ccccc1N(C(=O)c1cccc(-c3c[nH]nc3C3CC3)n1)CC2 [Example 182]	> 800 nM
O=C(NC1CCC1)c1cc2c(s1)-c1ccccc1N(C(=O)c1cccc(-c3c[nH]nc3C3CC3)n1)CC2 [Example 178]	< 400 nM
COc1ccc2c(c1)OCCN(c1cccc(C(=O)N3CCc4cc(C(=O)NC5CC5)sc4-c4ccccc43)n1)C2 [Example 282]	< 400 nM
Cc1cccc(F)c1NC(=O)c1cc2c(s1)-c1ccccc1N(C(=O)c1cccc(-c3coc4ccccc34)n1)CC2 [Example 256]	< 400 nM

SMILES	EC50
O=C(NC1CC1)c1cc2c(s1)-c1ccccc1N(C(=O)c1cccc(-c3ccnc(C4CC4)c3)n1)CC2 [Example 166]	> 800 nM
Cc1cccc(F)c1NC(=O)c1cc2c(s1)-c1ccccc1N(C(=O)c1cccc(N(C)Cc3cccnc3)n1)CC2 [Example 338]	< 400 nM
COc1cccc(Oc2cccc(C(=O)N3CCc4cc(C(=O)NC5CC5)sc4-c4ccccc43)n2)c1 [Example 393]	> 800 nM
Cc1cccc(F)c1NC(=O)c1cc2c(s1)-c1ccccc1N(C(=O)c1cccc(N(C)Cc3cccc(-c4cccnc4)c3)n1)CC2 [Example 351]	> 800 nM
O=C(NC1CC1)c1cc2c(s1)-c1ccccc1N(C(=O)c1cccc(Nc3cccc4c3C(=O)NC4)n1)CC2 [Example 411]	> 800 nM
COC[C@@H](Nc1cccc(C(=O)N2CCc3cc(C(=O)Nc4c(C)cccc4F)sc3-c3ccccc32)n1)c1ccccc1 [Example 501]	> 800 nM
Cc1cc(-c2cccc(C(=O)N3CCc4cc(C(=O)Nc5c(C)cccc5F)sc4-c4ccccc43)n2)n(C)n1 [Example 234]	< 400 nM
O=C(NC1CC1)c1cc2c(s1)-c1ccccc1N(C(=O)c1cccc(-c3ccc(C4CC4)nc3)n1)CC2 [Example 77]	400 to 800 nM
Cc1cccc(F)c1NC(=O)c1cc2c(s1)-c1cccc(F)c1N(C(=O)c1cccc(N3CCCOCC3)n1)CC2 [Example 503]	< 400 nM
CN1CCCN(c2cccc(C(=O)N3CCc4cc(C(=O)NC5CC5)sc4-c4ccccc43)n2)CC1 [Example 36]	400 to 800 nM
Cc1cccc(F)c1NC(=O)c1cc2c(s1)-c1ccccc1N(C(=O)c1cccc(N(C)Cc3cccc4ccccc34)n1)CC2 [Example 353]	> 800 nM
COC1CCN(c2cccc(C(=O)N3CCc4cc(C(=O)NC5CC5)sc4-c4ccccc43)n2)CC1 [Example 21]	400 to 800 nM
Cc1cccc(F)c1NC(=O)c1cc2c(s1)-c1ccccc1N(C(=O)c1cccc(NCC3(S(C)(=O)=O)CC3)n1)CC2 [Example 466]	< 400 nM
O=C(NC1CC1)c1cc2c(s1)-c1ccccc1N(C(=O)c1cc(N3CCOCC3)ncn1)CC2 [Example 49]	> 800 nM
O=C(NC1CC1)c1cc2c(s1)-c1ccccc1N(C(=O)c1ccc(Cl)c(N3CCCOCC3)n1)CC2 [Example 43]	400 to 800 nM
Cc1cccc(F)c1NC(=O)c1cc2c(s1)-c1ccccc1N(C(=O)c1cccc(-n3cc(S(C)(=O)=O)cn3)n1)CC2 [Example 144]	> 800 nM
Cc1cccc(F)c1NC(=O)c1cc2c(s1)-c1ccccc1N(C(=O)c1cccc(N(C)Cc3cccc(-c4ccncc4)c3)n1)CC2 [Example 346]	400 to 800 nM
O=C(NC1CC1)c1cc2c(s1)-c1ccccc1N(C(=O)c1cccc(N3CCS(=O)(=O)c4ccccc4C3)n1)CC2 [Example 283]	< 400 nM
Cc1cccc(F)c1NC(=O)c1cc2c(s1)-c1ccccc1N(C(=O)c1cccc(N3C(=O)OC[C@@H]3c3ccccc3)n1)CC2 [Example 425]	< 400 nM
Cc1cccc(F)c1NC(=O)c1cc2c(s1)-c1ccccc1N(C(=O)c1cccc(NC3CCOCC3)n1)CC2 [Example 453]	< 400 nM
COCCNC(=O)c1cc2c(s1)-c1ccccc1N(C(=O)c1cccc(N3CCCOCC3)n1)CC2 [Example 101]	< 400 nM
Cc1cccc(F)c1NC(=O)c1cc2c(s1)-c1ccccc1N(C(=O)c1cccc(-c3c[nH]nc3C3CC3)n1)CC2 [Example 196]	< 400 nM
COc1ccc(-c2cccc(C(=O)N3CCc4cc(C(=O)NC5CC5)sc4-c4ccccc43)n2)cn1 [Example 65]	< 400 nM

SMILES	EC50
O=C(NC1CC1)c1cc2c(s1)-c1ccccc1N(C(=O)c1ccc3ccc(N4CCOCC4)cc3n1)CC2 [Example 298]	> 800 nM
Cc1cccc(F)c1NC(=O)c1cc2c(s1)-c1ccccc1N(C(=O)c1cccc(N3CCC[C@H](N)C3=O)n1)CC2 [Example 478]	> 800 nM
COc1ccc(-c2cccc(C(=O)N3CCc4sc(C(=O)NC5CC5)nc4-c4ccccc43)n2)cn1 [Example 109]	> 800 nM
COC[C@H]1CCCN1c1cccc(C(=O)N2CCc3cc(C(=O)Nc4c(C)cccc4F)sc3-c3ccc(C)cc32)n1 [Example 499]	< 400 nM
Cc1cc(-c2ccc(C(=O)N3CCc4cc(C(=O)Nc5c(C)cccc5F)sc4-c4ccccc43)cc2)n[nH]1 [Example 270]	> 800 nM
CS(=O)(=O)N1CCCc2cc(C(=O)N3CCc4cc(C(=O)NC5CC5)sc4-c4ccccc43)ccc21 [Example 9]	> 800 nM
O=C(NC1CC1)c1cc2c(s1)-c1ccccc1N(C(=O)c1cccc(N3CCOCC3)c1)CC2 [Example 4]	> 800 nM
Cc1cccc(F)c1NC(=O)c1cc2c(s1)-c1ccccc1N(C(=O)c1cccc(-c3c[nH]c4ccc(Cl)cc34)n1)CC2 [Example 249]	< 400 nM
O=C1CN(c2cccc(C(=O)N3CCc4cc(C(=O)NC5CC5)sc4-c4ccccc43)n2)CCN1 [Example 22]	400 to 800 nM
Cc1cccc(F)c1NC(=O)c1cc2c(s1)-c1ccccc1N(C(=O)c1cccc(N(CCS(C)(=O)=O)C3CC3)n1)CC2 [Example 463]	400 to 800 nM
O=C(Nc1cc2c(s1)-c1ccccc1N(C(=O)c1cccc(N3CCOc4ccccc4C3)n1)CC2)NC1CC1 [Example 312]	> 800 nM
COc1ccc(-c2cccc(C(=O)N3CCc4cnc(NC(=O)C5CC5)nc4-c4ccccc43)n2)cn1 [Example 110]	> 800 nM
Cc1cccc(F)c1NC(=O)c1cc2c(s1)-c1ccccc1N(C(=O)c1cccc(N3CCOc4ccccc4C3)n1)CC2 [Example 363]	< 400 nM
Cc1cccc(F)c1NC(=O)c1cc2c(s1)-c1ccccc1N(C(=O)c1ccc(NS(=O)(=O)c3cccnc3N3CC4(CCOCC4)C3)cc1)CC2 [Example 132]	> 800 nM
O=C(NC1CC1)c1cc2c(s1)-c1ccccc1N(C(=O)c1cccc(N3CCC4(CC3)COC4)n1)CC2 [Example 18]	400 to 800 nM
O=C(NC1CC1)c1cc2c(s1)-c1ccccc1N(C(=O)c1cccc(N3CCOCC3)n1)CC2 [Example 16]	400 to 800 nM
COc1ccccc1CNc1cccc(C(=O)N2CCc3cc(C(=O)NC4CC4)sc3-c3ccccc32)n1 [Example 287]	> 800 nM
Cc1cccc(F)c1NC(=O)c1cc2c(s1)-c1ccccc1N(C(=O)c1cccc(NCC3OCc4ccccc43)n1)CC2 (stereo not shown) [Example 336]	< 400 nM
COc1ccc2c(ccn2-c2cccc(C(=O)N3CCc4cc(C(=O)NC5CC5)sc4-c4ccccc43)n2)c1 [Example 113]	> 800 nM
O=C(Nc1cc2c(s1)-c1ccccc1N(C(=O)c1cccc(N3CCOc4ccccc4C3)n1)CC2)NS(=O)(=O)C1CC1 [Example 316]	> 800 nM
COc1cccc(CN(C)c2cccc(C(=O)N3CCc4cc(C(=O)Nc5c(C)cccc5F)sc4-c4ccccc43)n2)c1 [Example 343]	< 400 nM
